Measurements published in patent US20220332700A1, “NOVEL APOPTOSIS SIGNAL-REGULATING KINASE 1 INHIBITORS” (MANKIND PHARMA LTD, priority 2019, published 2022).
Read-outs that look alike come from different tables or passages of the source.

Molecular target: T1, Human ASK1 (Homo sapiens, UniProt Q99683)
T1 construct: expressed in transfected cells; host or cells: HEK293T-AP1
T1 sequence (Q99683 1-1374): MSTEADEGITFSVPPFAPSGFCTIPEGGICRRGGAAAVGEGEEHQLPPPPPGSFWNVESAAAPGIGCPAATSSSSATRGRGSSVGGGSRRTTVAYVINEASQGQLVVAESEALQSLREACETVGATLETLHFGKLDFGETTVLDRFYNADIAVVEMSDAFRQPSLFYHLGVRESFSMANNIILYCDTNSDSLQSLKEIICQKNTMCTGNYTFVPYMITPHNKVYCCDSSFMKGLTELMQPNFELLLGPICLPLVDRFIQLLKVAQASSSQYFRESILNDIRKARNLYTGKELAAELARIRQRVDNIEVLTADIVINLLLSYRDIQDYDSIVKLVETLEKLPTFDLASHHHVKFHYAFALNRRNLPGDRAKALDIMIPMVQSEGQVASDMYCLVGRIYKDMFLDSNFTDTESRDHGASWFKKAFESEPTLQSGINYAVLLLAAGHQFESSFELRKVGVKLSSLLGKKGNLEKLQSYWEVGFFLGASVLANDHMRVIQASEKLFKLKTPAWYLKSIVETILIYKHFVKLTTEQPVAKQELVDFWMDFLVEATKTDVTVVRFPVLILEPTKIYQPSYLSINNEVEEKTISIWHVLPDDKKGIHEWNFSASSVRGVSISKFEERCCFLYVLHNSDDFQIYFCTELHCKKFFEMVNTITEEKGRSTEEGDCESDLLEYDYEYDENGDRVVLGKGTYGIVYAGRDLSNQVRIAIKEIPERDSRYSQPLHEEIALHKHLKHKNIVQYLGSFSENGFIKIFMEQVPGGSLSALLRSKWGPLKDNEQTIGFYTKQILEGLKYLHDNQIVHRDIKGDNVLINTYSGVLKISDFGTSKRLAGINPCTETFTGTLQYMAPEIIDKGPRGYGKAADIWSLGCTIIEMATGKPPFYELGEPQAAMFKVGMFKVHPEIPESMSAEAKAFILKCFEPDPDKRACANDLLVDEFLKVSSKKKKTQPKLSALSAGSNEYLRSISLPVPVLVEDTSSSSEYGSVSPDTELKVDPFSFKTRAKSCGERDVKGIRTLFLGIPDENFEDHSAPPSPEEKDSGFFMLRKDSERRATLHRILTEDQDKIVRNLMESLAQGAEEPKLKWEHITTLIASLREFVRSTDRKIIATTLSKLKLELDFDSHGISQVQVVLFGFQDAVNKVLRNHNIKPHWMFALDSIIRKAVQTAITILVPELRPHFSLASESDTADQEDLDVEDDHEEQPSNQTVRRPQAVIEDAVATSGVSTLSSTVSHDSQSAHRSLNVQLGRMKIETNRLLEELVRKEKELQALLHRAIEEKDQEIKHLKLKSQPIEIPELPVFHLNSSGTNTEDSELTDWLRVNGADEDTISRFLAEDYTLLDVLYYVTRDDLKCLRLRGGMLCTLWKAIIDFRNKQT
Assay: ASK1 Cell Based Assay (phospho p38 read out in hASK1 transfected HEK293T-AP1 cells)
How it was run: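 HEK293T-AP1 cells transfected with hASK1, after 24 h treated with compounds for 24 h (0.2% DMSO), then stimulated with 1 mM H2O2 for 1 h with compounds present.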

[1] = HEK293T-AP1 cells, 1 mM hydrogen peroxide, phospho p38, read-out: Cell Based Assay IC50
[2] = comparison with Selonsertib, read-out: ASK1 ph. P38 Cell based Assay (IC50)

Row | IC50 [1] [µM] | IC50 [2] [µM] | SMILES
1 | 0.14 | 0.14 | CC(C)n1cnnc1-c1cccc(N2CCN(c3ccc(N4CCOCC4)cc3)C2=O)n1 [Example 1043, 1-(6-(4-isopropyl-4H-1,2,4-triazol-3-yl)pyridin-2-yl)-3-(4-morpholinophenyl)imidazolidin-2-one]
2 | < 0.1 | 0.069 | CC(C)n1cnnc1-c1cccc(N2CCN(c3ccc(N4CC(C#N)C4)cc3)C2=O)n1 [Example 1071, 1-(4-(3-(6-(4-isopropyl-4H-1,2,4-triazol-3-yl)pyridin-2-yl)-2-oxoimidazolidin-1-yl)phenyl)azetidine-3-carbonitrile]
3 | < 0.1 | 0.015 | CNC(=O)C1CCN(c2ccc(N3CCN(c4cccc(-c5nncn5C(C)C)n4)C3=O)cc2)CC1 [Example 1082, 1-(4-(3-(6-(4-isopropyl-4H-1,2,4-triazol-3-yl)pyridin-2-yl)-2-oxoimidazolidin-1-yl)phenyl)-N-methylpiperidine-4-carboxamide]
4 | < 0.1 | 0.102 | CC(C)n1cnnc1-c1cccc(N2CCN(c3ccc(N4CCC(C(=O)N(C)C)CC4)cc3)C2=O)n1 [Example 1097, 1-(4-(3-(6-(4-isopropyl-4H-1,2,4-triazol-3-yl)pyridin-2-yl)-2-oxoimidazolidin-1-yl)phenyl)-N,N-dimethylpiperidine-4-carboxamide]
